# ChEMBL document CHEMBL1136244, “Synthesis and structure-activity relationships of 1-arylmethyl-3-(2-aminopropyl)-5-aryl-6-methyluracils as potent GnRH receptor antagonists” (Bioorg Med Chem Lett, 2003)
# Biological target: T1, Gonadotropin-releasing hormone receptor (Homo sapiens, UniProt P30968)
# T1 sequence (P30968 whole entry): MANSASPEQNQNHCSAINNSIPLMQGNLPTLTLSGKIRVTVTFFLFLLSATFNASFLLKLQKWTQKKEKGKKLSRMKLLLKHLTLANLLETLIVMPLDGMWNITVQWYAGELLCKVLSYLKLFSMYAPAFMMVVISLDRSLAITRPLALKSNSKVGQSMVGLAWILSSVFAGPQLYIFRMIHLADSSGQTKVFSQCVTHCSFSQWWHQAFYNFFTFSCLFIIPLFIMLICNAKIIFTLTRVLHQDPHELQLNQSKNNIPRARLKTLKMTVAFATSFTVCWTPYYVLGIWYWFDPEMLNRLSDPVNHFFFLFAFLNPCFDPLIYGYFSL
# Assay: Ability to inhibit des-Gly10[125I]Tyr5,DLeu6,NMeLeu7, Pro9-NEt]-GnRH radioligand binding to the cloned human gonadotropin-releasing hormone receptor stably expressed in HEK293 cells
# Format: cell-based
row,SMILES,Ki
1,COc1cccc(-c2c(C)n(Cc3c(F)cccc3F)c(=O)n(C[C@H](C)NCCc3ccccn3)c2=O)c1,0.78 µM
2,COc1cccc(-c2c(C)n(Cc3c(F)cccc3F)c(=O)n(C[C@H](C)N)c2=O)c1,18 µM
3,COc1cccc(-c2c(C)n(Cc3c(F)cccc3F)c(=O)n(CC(C)NCc3ccccn3)c2=O)c1 (centres undefined),0.053 µM
4,COc1cccc(-c2c(C)n(Cc3c(F)cccc3F)c(=O)n(C[C@H](C)N(C)Cc3ccccc3)c2=O)c1,0.25 µM
5,COc1cccc(-c2c(C)n(Cc3c(F)cccc3F)c(=O)n(C[C@@H](C)N(C)Cc3ccccc3)c2=O)c1,0.33 µM
6,COc1cccc(-c2c(C)n(Cc3c(F)cccc3F)c(=O)n(C[C@@H](C)NCCc3ccccn3)c2=O)c1,0.079 µM
7,COc1cccc(-c2c(C)n(Cc3c(F)cccc3F)c(=O)n(CC(C)NCCCOCC(C)C)c2=O)c1 (centres undefined),0.081 µM
8,COc1cccc(-c2c(C)n(Cc3c(F)cccc3F)c(=O)n(C[C@@H]3CCCN3Cc3ccccn3)c2=O)c1,0.21 µM
9,COc1cccc(-c2c(C)n(Cc3c(F)cccc3F)c(=O)n(CC(C)NCCc3ccccn3)c2=O)c1 (centres undefined),0.17 µM
10,COc1cccc(-c2c(C)n(Cc3c(F)cccc3F)c(=O)n(C[C@@H](C)N)c2=O)c1,2.5 µM
11,COc1cccc(-c2c(C)n(Cc3c(F)cccc3F)c(=O)n(CC(C)NCc3ccccc3)c2=O)c1 (centres undefined),0.28 µM
12,COc1cccc(-c2c(C)n(Cc3c(F)cccc3F)c(=O)n(C[C@@H](C)NCc3ccccn3)c2=O)c1,0.015 µM
13,COc1cccc(-c2c(C)n(Cc3c(F)cccc3F)c(=O)n(C[C@H](C)NCc3ccccc3)c2=O)c1,0.14 µM
14,COc1cccc(-c2c(C)n(Cc3c(F)cccc3F)c(=O)n(C[C@H](C)N(C)CCc3ccccn3)c2=O)c1,0.89 µM
15,COc1cccc(-c2c(C)n(Cc3c(F)cccc3F)c(=O)n(C[C@@H](C)N(C)CCc3ccccn3)c2=O)c1,0.0052 µM
16,COc1cccc(-c2c(C)n(Cc3c(F)cccc3F)c(=O)n(CC(C)N(C)CCCOCC(C)C)c2=O)c1 (centres undefined),0.24 µM
17,COc1cccc(-c2c(C)n(Cc3c(F)cccc3F)c(=O)n(C[C@H](C)NCc3ccccn3)c2=O)c1,0.46 µM
18,COc1cccc(-c2c(C)n(Cc3c(F)cccc3F)c(=O)n(CC(C)N(C)CCc3ccccn3)c2=O)c1 (centres undefined),0.012 µM
19,COc1cccc(-c2c(C)n(Cc3c(F)cccc3F)c(=O)n(CCNCc3ccccn3)c2=O)c1,0.55 µM
20,COc1cccc(-c2c(C)n(Cc3c(F)cccc3F)c(=O)n(C[C@@H](C)NCc3ccccc3)c2=O)c1,0.13 µM
21,COc1cccc(-c2c(C)n(Cc3c(F)cccc3F)c(=O)n(CCN(C)Cc3ccccn3)c2=O)c1,0.096 µM
22,COc1cccc(-c2c(C)n(Cc3c(F)cccc3F)c(=O)n(CC(C)N(C)Cc3ccccc3)c2=O)c1 (centres undefined),0.31 µM
23,COc1cccc(-c2c(C)n(Cc3c(F)cccc3F)c(=O)n(C[C@H]3CCCN3Cc3ccccn3)c2=O)c1,0.032 µM

# Test system: not listed separately
# Assay: Inhibition of GnRH-stimulated [Ca2+] influx
# Format: functional
row,SMILES,IC50
1,COc1cccc(-c2c(C)n(Cc3c(F)cccc3F)c(=O)n(C[C@@H](C)N(C)Cc3ccccn3)c2=O)c1,0.0025 µM
